Experimental data reported in patent publication US20090004261A1, “PHARMACEUTICAL COMPOSITION FOR ORAL ADMINISTRATION OF A PYRAZOLE-3-CARBOXAMIDE DERIVATIVE” (Sanofi-aventis, priority 2003, published 2009).
≈ marks a conversion by molar mass, not a printed value.

How the values were obtained:
[1] = Membrane permeability coefficient on the CaCO2 cell model; format: in vitro ADME; details: human, Caco-2
Procedure: (§1) These compounds are molecules that are very sparingly soluble in water, respectively: 0.1 μg/ml and 1 μg/l at pH=6.5. Furthermore, these compounds have high membrane permeability coefficients: respectively, 78×10^−7 cm/s and 96×10^−7 cm/s on the CaCO2 cell model, as described by M. C. Gres et al. in Pharmaceutical Research, […], 15(5), 726-7333.

Solubility in water = format: physicochemical; details: pH=6.5
Procedure: as §1

Row | Papp [1] [×10⁻⁶ cm/s] | solubility (Solubility in water) [µg/mL] | Compound
1 | 7.8 | 0.1 (≈ 0.191 µM) | CCc1c(C(=O)NN2CCCCC2)nn(-c2ccc(Cl)cc2Cl)c1-c1ccc(Br)cc1 [Compound A, N-Piperidino-5-(4-bromophenyl)-1-(2,4-dichlorophenyl)-4-ethylpyrazole-3-carboxamide]
2 | 9.6 |  | Cc1c(C(=O)NN2CCCCC2)nn(-c2ccc(Cl)cc2Cl)c1-c1ccc(Cl)cc1 [Compound B, N-Piperidino-5-(4-chlorophenyl)-1-(2,4-dichlorophenyl)-4-methylpyrazole-3-carboxamide, reference compound]
